{"source": "patent US4672036A", "about": "“Pure cultures of Kibdelsporangium aridum Shearer gen. nov., sp. nov. ATCC 39323 and mutants thereof” (SmithKline Beckman Corporation, priority 1985, dated 1987)", "key": {"[1]": {"system": "C. perfringens ATCC 19408", "test": "microbe, parasite or virus in culture", "conditions": "Clostridium perfringens, ATCC19408"}, "[2]": {"system": "Fusobacterium nucleatum ATCC 25586", "format": "cell-based", "conditions": "Fusobacterium nucleatum, ATCC25586"}, "[3]": {"system": "Staph. aureus SK & F 2593", "format": "cell-based", "conditions": "Staphylococcus aureus"}, "[4]": {"system": "Enterobacter cloacae HH31254", "format": "cell-based", "conditions": "Enterobacter cloacae, HH31254"}, "[5]": {"system": "Providencia SK & F 276", "format": "cell-based", "conditions": "Providencia"}, "[6]": {"system": "Staph. aureus SK & F 2589", "format": "cell-based", "conditions": "Staphylococcus aureus"}, "[7]": {"system": "Staph. aureus 209P-Mutant", "test": "microbe, parasite or virus in culture", "format": "cell-based", "conditions": "Staphylococcus aureus, 209P"}, "[8]": {"system": "Staph. aureus SK & F 2612", "format": "cell-based", "conditions": "Staphylococcus aureus"}, "[9]": {"system": "Proteus morgani SK & F 179", "format": "cell-based"}, "[10]": {"system": "Staph. aureus SK & F 2615", "format": "cell-based", "conditions": "Staphylococcus aureus"}, "[11]": {"system": "Staph. aureus SK & F 2678", "format": "cell-based", "conditions": "Staphylococcus aureus"}, "[12]": {"system": "Staph. aureus SK & F 910", "format": "cell-based", "conditions": "Staphylococcus aureus"}, "[13]": {"system": "Staph. aureus SK & F 2736", "format": "cell-based", "conditions": "Staphylococcus aureus"}, "[14]": {"system": "Staph. aureus SK & F 2677", "format": "cell-based", "conditions": "Staphylococcus aureus"}, "[15]": {"system": "Staph. aureus SK & F 2590", "format": "cell-based", "conditions": "Staphylococcus aureus"}, "[16]": {"system": "Salmonella gallinarum BC595", "test": "microbe, parasite or virus in culture", "conditions": "Salmonella enterica"}, "[17]": {"system": "Staph. aureus SK & F 2777", "format": "cell-based", "conditions": "Staphylococcus aureus"}, "[18]": {"system": "Staph. aureus SK & F 2666", "format": "cell-based", "conditions": "Staphylococcus aureus"}, "[19]": {"system": "Staph. aureus HH 127", "test": "animal or person", "conditions": "Staphylococcus aureus, HH127, in Mus musculus"}, "[20]": {"system": "rumen in vitro model", "test": "rumen in vitro model (growth promotant activity)", "set-up": "species or system steer"}, "[21]": {"system": "Staph. aureus SK & F 2595", "format": "cell-based", "conditions": "Staphylococcus aureus"}, "[22]": {"system": "Staph. aureus SK & F 2591", "format": "cell-based", "conditions": "Staphylococcus aureus"}, "[23]": {"system": "Staph. aureus SK & F 2616", "format": "cell-based", "conditions": "Staphylococcus aureus"}}, "note": "Values joined by “and” are separate entries in the source; they are usually repeats but may differ in a detail not shown here. Equal values may be shown once. Read-outs that look alike come from different tables or passages of the source.", "data": [{"smiles": "CN[C@H](CC(C)C)C(=O)N[C@H]1C(=O)N[C@@H](CC(N)=O)C(=O)N[C@H]2C(=O)N[C@H]3C(=O)N[C@H](C(=O)N[C@H](C(=O)O)c4cc(O)cc(O)c4-c4cc3ccc4O)[C@H](O)c3ccc(c(Cl)c3)Oc3cc2cc(c3O[C@@H]2O[C@H](CO)[C@@H](O)[C@H](O)[C@H]2O[C@H]2C[C@](C)(N)[C@H](O)[C@H](C)O2)Oc2ccc(cc2Cl)[C@H]1O", "note": "[Vancomycin, reference compound]", "values": [{"measurement": "MIC", "setting": "[1]", "result": 1, "unit": "µg/mL"}, {"measurement": "MIC", "setting": "[2]", "result": 32, "unit": "µg/mL"}, {"measurement": "MIC", "setting": "[3]", "result": 1.6, "unit": "µg/mL"}, {"measurement": "MIC", "setting": "[4]", "result": "> 100", "unit": "µg/mL"}, {"measurement": "MIC", "setting": "[5]", "result": "> 100", "unit": "µg/mL"}, {"measurement": "MIC", "setting": "[6]", "result": 1.6, "unit": "µg/mL"}, {"measurement": "MIC", "setting": "[7]", "result": "> 100", "unit": "µg/mL"}, {"measurement": "MIC", "setting": "[8]", "result": 1.6, "unit": "µg/mL"}, {"measurement": "MIC", "setting": "[9]", "result": "> 100", "unit": "µg/mL"}, {"measurement": "MIC", "setting": "[10]", "result": 3.1, "unit": "µg/mL"}, {"measurement": "MIC", "setting": "[11]", "result": 1.6, "unit": "µg/mL"}, {"measurement": "MIC", "setting": "[12]; Table A", "result": 1.6, "unit": "µg/mL"}, {"measurement": "MIC", "setting": "[12]; Table B, Methicillin Sensitive", "result": 1.6, "unit": "µg/mL"}, {"measurement": "MIC", "setting": "[12]; Table E", "result": 3.1, "unit": "µg/mL"}, {"measurement": "MIC", "setting": "[13]", "result": 1.6, "unit": "µg/mL"}, {"measurement": "MIC", "setting": "[14]", "result": 1.6, "unit": "µg/mL"}, {"measurement": "MIC", "setting": "[15]", "result": 1.6, "unit": "µg/mL"}, {"measurement": "MIC", "setting": "[16]; Table A", "result": 25, "unit": "µg/mL"}, {"measurement": "MIC", "setting": "[16]; Table E", "result": "> 100", "unit": "µg/mL"}, {"measurement": "MIC", "setting": "[17]", "result": 0.8, "unit": "µg/mL"}, {"measurement": "MIC", "setting": "[18]", "result": 1.6, "unit": "µg/mL"}, {"measurement": "ED50", "setting": "[19]", "result": 1.76, "unit": "mg/kg"}, {"measurement": "LYS (lysine)", "setting": "[20]", "result": "85 % Control and 83 % Control"}, {"measurement": "MIC", "setting": "[21]", "result": "~1.6", "unit": "µg/mL"}, {"measurement": "MIC", "setting": "[22]", "result": 1.6, "unit": "µg/mL"}, {"measurement": "MIC", "setting": "[23]", "result": 0.8, "unit": "µg/mL"}]}]}
